Legend:
[1] = tested on: CYP1A2 mRNA; experiment: CYP1A2 mRNA induction in cryopreserved human hepatocytes; assay type: in vitro ADME; conditions: positive control inducer; human hepatocytes
Method: (§1) The induction potential of Compound A on CYP enzymes was assessed in cryopreserved human hepatocytes from three donors. Following treatment for with Compound A at concentrations of 0.03-30 μM for 48 hours, mRNA levels for CYP1A2, 2B6, 2C8, 2C9, 2C19, and 3A4 were determined by semiquantitative real-time polymerase chain reaction (PCR). Test article concentrations during 24-hour incubation were determined. The potential of Compound A to cause direct and time-dependent inhibition (TDI) of the activities of CYP1A2, 2B6, 2C8, 2C9, 2C19, 2D6, and 3A4 was evaluated in pooled human liver microsomes (HLM) at 0.2-15 μM. Probe substrate concentrations around Km were used for direction inhibition and initial TDI assays. For TDI assay, Compound A was pre-incubated with pooled HLM with and without NADPH for 30 minutes prior to incubation with a single concentration of probe substrate.

[2] = tested on: CYP2B6 mRNA; experiment: CYP2B6 mRNA induction in cryopreserved human hepatocytes; assay type: in vitro ADME; conditions: positive control inducer; human hepatocytes
Method: as §1

Row | SMILES | CYP1A2 mRNA Fold induction, PC [1] | CYP2B6 mRNA Fold induction, PC [2]
1 | COc1ccc2[nH]c([S+]([O-])Cc3ncc(C)c(OC)c3C)nc2c1 (centres unmarked) [Omeprazole, reference compound] | 77-88 Fold | –
2 | CCC1(c2ccccc2)C(=O)NC(=O)NC1=O [Phenobarbital, reference compound] | – | 14-25 Fold

From patent US20250009737A1, “COMPOUNDS AND METHODS FOR THE TARGETED DEGRADATION OF ANDROGEN RECEPTOR” (Arvinas Operations, Inc., priority 2023, published 2025)
